Assay: xn = mol fraction of the nth substance listed

Oc1ccccc1Cl + CCCCCOC(C)=O
Conditions	viscosity [mPa·s]
298.15 K, 101 kPa, x1 = 0.5	1.202

CCCCOC(C)=O + CCCCCC
viscosity [mPa·s]
Conditions	298.15 K	308.15 K
101 kPa, x1 = 0.0521	0.3	0.282
101 kPa, x1 = 0.1491	0.319	0.3
101 kPa, x1 = 0.2486	0.341	0.321
101 kPa, x1 = 0.3517	0.368	0.346
101 kPa, x1 = 0.4482	0.397	0.372
101 kPa, x1 = 0.4932	0.412	0.385
101 kPa, x1 = 0.5515	0.433	0.403
101 kPa, x1 = 0.6483	0.472	0.436
101 kPa, x1 = 0.7486	0.519	0.474
101 kPa, x1 = 0.8491	0.574	0.517
101 kPa, x1 = 0.9461	0.635	0.565
101.3 kPa, x1 = 0.1335	0.3275	–
101.3 kPa, x1 = 0.2322	0.3509	–
101.3 kPa, x1 = 0.3294	0.3762	–
101.3 kPa, x1 = 0.4644	0.4191	–
101.3 kPa, x1 = 0.5644	0.4558	–
101.3 kPa, x1 = 0.6697	0.4996	–
101.3 kPa, x1 = 0.8002	0.5626	–
101.3 kPa, x1 = 0.8967	0.6164	–
101.3 kPa, x1 = 0.9324	0.6456	–

CCCOC(=O)c1ccccc1 + CCCCCCCCCCCCCC
101 kPa
Conditions	viscosity [mPa·s]
298.15 K, x2 = 0.0348	2.302
298.15 K, x2 = 0.0666	2.257
298.15 K, x2 = 0.0955	2.215
298.15 K, x2 = 0.1309	2.171
298.15 K, x2 = 0.1608	2.137
298.15 K, x2 = 0.1965	2.099
298.15 K, x2 = 0.2367	2.06
298.15 K, x2 = 0.2722	2.029
298.15 K, x2 = 0.307	2.003
298.15 K, x2 = 0.3527	1.974
298.15 K, x2 = 0.401	1.948
298.15 K, x2 = 0.4477	1.928
298.15 K, x2 = 0.4973	1.916
298.15 K, x2 = 0.549	1.906
298.15 K, x2 = 0.5955	1.905
298.15 K, x2 = 0.6516	1.908
298.15 K, x2 = 0.7159	1.921
298.15 K, x2 = 0.7647	1.934
298.15 K, x2 = 0.8531	1.97
308.15 K, x2 = 0.0488	1.84
308.15 K, x2 = 0.0735	1.808
308.15 K, x2 = 0.1091	1.77
308.15 K, x2 = 0.148	1.734
308.15 K, x2 = 0.1734	1.714
308.15 K, x2 = 0.215	1.682
308.15 K, x2 = 0.2514	1.659
308.15 K, x2 = 0.2896	1.639
308.15 K, x2 = 0.3376	1.62
308.15 K, x2 = 0.3703	1.608
308.15 K, x2 = 0.4154	1.596
308.15 K, x2 = 0.4616	1.587
308.15 K, x2 = 0.5232	1.58
308.15 K, x2 = 0.572	1.58
308.15 K, x2 = 0.6124	1.582
308.15 K, x2 = 0.6769	1.588
308.15 K, x2 = 0.7367	1.601
308.15 K, x2 = 0.8128	1.623
308.15 K, x2 = 0.8907	1.652
318.15 K, x2 = 0.0558	1.521
318.15 K, x2 = 0.0578	1.517
318.15 K, x2 = 0.0908	1.491
318.15 K, x2 = 0.1258	1.464
318.15 K, x2 = 0.159	1.442
318.15 K, x2 = 0.1985	1.418
318.15 K, x2 = 0.2344	1.399
318.15 K, x2 = 0.2777	1.379
318.15 K, x2 = 0.3162	1.364
318.15 K, x2 = 0.3637	1.348
318.15 K, x2 = 0.4065	1.337
318.15 K, x2 = 0.4576	1.328
318.15 K, x2 = 0.5191	1.321
318.15 K, x2 = 0.5622	1.319
318.15 K, x2 = 0.6149	1.32
318.15 K, x2 = 0.68	1.325
318.15 K, x2 = 0.7358	1.332
318.15 K, x2 = 0.8096	1.347
318.15 K, x2 = 0.9298	1.382

Reference: the CheMixHub viscosity set
